Measured values as given in patent publication US20160046618A1, “Cyclopropyl Fused Thiazin-2-Amine Compounds as Beta-Secretase Inhibitors and Methods of Use” (AMGEN INC., priority 2014, published 2016).

How the values were obtained:
human recombinant BACE2 = human recombinant BACE2 (Homo sapiens (Human), UniProt Q9Y5Z0); experiment: In vitro enzymatic BACE2 FRET assay; type: biochemical; settings: read-out: IC50 IP (μM) BACE2 enzyme
In short: (§1)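 Tris addition raises the pH to neutral to stop the reaction before fluorescence is measured at 590 nm emission with 488 nm excitation.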

human recombinant BACE1 = human recombinant BACE1 (Homo sapiens (Human), UniProt P56817); experiment: In vitro enzymatic BACE1 FRET assay; type: biochemical; settings: read-out: IC50 IP (μM) BACE1 enzyme
human recombinant BACE1, sequence (P56817 46-501): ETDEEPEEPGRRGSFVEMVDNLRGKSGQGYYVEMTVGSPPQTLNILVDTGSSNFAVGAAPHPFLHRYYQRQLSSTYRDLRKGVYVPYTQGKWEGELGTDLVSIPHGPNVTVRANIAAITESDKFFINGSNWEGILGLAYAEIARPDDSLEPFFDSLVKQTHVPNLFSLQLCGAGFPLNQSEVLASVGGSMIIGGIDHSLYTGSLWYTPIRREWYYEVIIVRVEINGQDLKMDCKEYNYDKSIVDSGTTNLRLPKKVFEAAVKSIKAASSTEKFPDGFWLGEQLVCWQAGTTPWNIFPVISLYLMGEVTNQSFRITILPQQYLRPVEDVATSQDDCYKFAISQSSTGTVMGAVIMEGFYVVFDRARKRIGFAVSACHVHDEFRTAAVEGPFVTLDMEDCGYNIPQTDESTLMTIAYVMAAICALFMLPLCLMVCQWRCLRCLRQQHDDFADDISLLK
In short: as §1

Recombinant Cat D = Recombinant Cat D (Homo sapiens (Human), UniProt P07339); experiment: In vitro enzymatic Cathepsin D (Cat D) FRET assay; type: biochemical; settings: read-out: IC50 IP (μM) CatD
Recombinant Cat D, sequence (P07339 65-412): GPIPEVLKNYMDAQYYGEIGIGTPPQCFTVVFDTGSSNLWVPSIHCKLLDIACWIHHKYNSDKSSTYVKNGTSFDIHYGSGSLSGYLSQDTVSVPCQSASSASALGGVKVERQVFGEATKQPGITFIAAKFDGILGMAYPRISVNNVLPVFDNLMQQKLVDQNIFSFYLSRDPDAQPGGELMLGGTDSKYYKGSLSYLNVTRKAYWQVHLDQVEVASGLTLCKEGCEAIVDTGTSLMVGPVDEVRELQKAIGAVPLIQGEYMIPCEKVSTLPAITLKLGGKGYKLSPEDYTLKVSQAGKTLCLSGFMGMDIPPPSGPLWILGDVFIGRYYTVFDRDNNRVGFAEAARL
In short: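 Cleavage of a 20 nM fluorophore/quencher peptide by CHO-expressed recombinant Cat D proceeded for one hour at pH 3.5 (0.05 M citrate, 5 mM CHAPS, 10% DMSO final). Tris addition neutralized the pH to end the reaction. Fluorescence was then measured (ex 500 nm/em 580 nm).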

[1] = test system: Aβ40 in conditioned medium of cells stably expressing Amyloid Precursor Protein (APP); experiment: In vitro BACE-1 cell-based assay (Aβ40 sandwich ELISA); settings: read-out: IC50 IP (μM) BACE1 cell
In short: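 Read-out: time-resolved fluorescence (Streptavidin-Europium) of Aβ40 captured by pAb40 and detected with biotinylated 6E10 from supernatants of APP-stable cells. Cells were exposed to compound for 24 h, 10-point dose response, top dose 100 μM or 10 μM, 0.1% DMSO. IC50 fitted to percent of control.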

human recombinant BACE2, sequence (Q9Y5Z0 63-518): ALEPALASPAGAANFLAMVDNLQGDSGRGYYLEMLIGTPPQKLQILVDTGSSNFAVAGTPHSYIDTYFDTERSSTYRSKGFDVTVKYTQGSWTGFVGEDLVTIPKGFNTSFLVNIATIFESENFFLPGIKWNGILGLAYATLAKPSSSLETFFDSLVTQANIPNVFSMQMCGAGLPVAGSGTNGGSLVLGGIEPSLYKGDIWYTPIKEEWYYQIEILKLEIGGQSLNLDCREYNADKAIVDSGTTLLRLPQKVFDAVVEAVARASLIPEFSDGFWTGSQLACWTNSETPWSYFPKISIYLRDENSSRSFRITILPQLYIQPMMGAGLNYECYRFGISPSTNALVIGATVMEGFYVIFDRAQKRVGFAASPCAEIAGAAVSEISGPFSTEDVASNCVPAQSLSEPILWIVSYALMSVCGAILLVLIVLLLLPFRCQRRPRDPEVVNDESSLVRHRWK

IC50 (human recombinant BACE2) [µM]	IC50 (human recombinant BACE1) [µM]	IC50 (Recombinant Cat D) [µM]	IC50 [1] [µM]	Compound
0.00302	0.000715	961	0.000535	C#CCOc1cnc2c(Nc3ccc(F)c([C@@]4(C)N=C(N)S[C@@]5(C(=O)N6CCCC6)C[C@H]54)c3)nccc2n1 [Example 632, N-(3-((1S,5S,6S)-3-amino-5-methyl-1-(1-pyrrolidinylcarbonyl)-2-thia-4-azabicyclo[4.1.0]hept-3-en-5-yl)-4-fluorophenyl)-2-(2-propyn-1-yloxy)pyrido[3,4-b]pyrazin-5-amine]
0.00165	0.00036	67.5	0.000224	C#CCOc1cnc(C(=O)Nc2ccc(F)c([C@@]3(C)N=C(N)S[C@@]4(C(=O)N5CCCC5)C[C@H]43)c2)cn1 [Example 633, N-(3-((1S,55,6S)-3-amino-5-methyl-1-(1-pyrrolidinylcarbonyl)-2-thia-4-azabicyclo[4.1.0]hept-3-en-5-yl)-4-fluorophenyl)-5-(2-propyn-1-yloxy)-2-pyrazinecarboxamide]
0.00951	0.000758	660	0.000616	C[C@]1(c2cc(NC(=O)c3cnc(OCC(F)(F)F)cn3)ccc2F)N=C(N)S[C@@]2(C(=O)N3CCCC3)C[C@H]21 [Example 634, N-(3-((1S,5S,6S)-3-amino-5-methyl-1-(1-pyrrolidinylcarbonyl)-2-thia-4-azabicyclo[4.1.0]hept-3-en-5-yl)-4-fluorophenyl)-5-(2,2,2-trifluoroethoxy)-2-pyrazinecarboxamide]
0.00261	0.0213	> 400	0.0121	C[C@]1(c2cc(NC(=O)c3ccc(Cl)cn3)cnc2F)N=C(N)S[C@H]2C[C@H]21 [Example 637, N-(5-((1S,5S,6S)-3-Amino-5-methyl-2-thia-4-azabicyclo[4.1.0]hept-3-en-5-yl)-6-fluoropyridin-3-yl)-5-chloropicolinamide]

The next lines start with the compound.

Compound	IC50 (human recombinant BACE2) [µM]	IC50 (human recombinant BACE1) [µM]	IC50 (Recombinant Cat D) [µM]	IC50 [1] [µM]
COC[C@]12C[C@H]1[C@@](C)(c1cc(Nc3nccc4cc(OC)cnc34)cc(F)c1F)N=C(N)S2 [Example 629, N-(3-((1S,5S,6S)-3-amino-1-(methoxymethyl)-5-methyl-2-thia-4-azabicyclo[4.1.0]hept-3-en-5-yl)-4,5-difluorophenyl)-3-methoxy-1,7-naphthyridin-8-amine]	0.0582	0.0365	2880	0.0205
C#CCOc1cnc2c(Nc3cc(F)c(F)c([C@@]4(C)N=C(N)S[C@@]5(S(C)(=O)=O)C[C@H]54)c3)nccc2n1 [Example 630, N-(3-((1R,5S,6S)-3-amino-5-methyl-1-(methylsulfonyl)-2-thia-4-azabicyclo[4.1.0]hept-3-en-5-yl)-4,5-difluorophenyl)-2-(2-propyn-1-yloxy)pyrido[3,4-b]pyrazin-5-amine]	0.00547	0.000443	74.9	0.00528
COCCOc1cnc2c(Nc3ccc(F)c([C@@]4(CF)N=C(N)S[C@@]5(CF)C[C@H]54)c3)nccc2n1 [Example 635, N-(3-((1S,5S,6S)-3-amino-1,5-bis(fluoromethyl)-2-thia-4-azabicyclo[4.1.0]hept-3-en-5-yl)-4-fluorophenyl)-2-(2-methoxyethoxy)pyrido[3,4-b]pyrazin-5-amine]	0.192	0.00832	> 400	0.0208
C[C@]1(c2cc(Nc3ncnc4cc(F)cnc34)cc(F)c2F)N=C(N)S[C@H]2C[C@H]21 [Example 636, (1S,5S,6S)-5-(2,3-difluoro-5-((7-fluoropyrido[3,2-d]pyrimidin-4-yl)amino)phenyl)-5-methyl-2-thia-4-azabicyclo[4.1.0]hept-3-en-3-amine]	0.0298	0.0918	996	0.411
C[C@]1(c2cc(Nc3nccc4[nH]c(=O)cnc34)cnc2F)N=C(N)S[C@H]2C[C@H]21 [Example 638, 5-((5-((1S,5S,6S)-3-amino-5-methyl-2-thia-4-azabicyclo[4.1.0]hept-3-en-5-yl)-6-fluoropyridin-3-yl)amino)pyrido[3,4-b]pyrazin-2(1H)-one]	0.0314	0.0625	> 400	0.0517
